From patent US20260125686A1, “COMPOSITIONS AND METHODS FOR MODULATION OF CFTR” (Cystic Fibrosis Foundation, priority 2022, published 2026)

Assays:
Exon 22 truncated CFTR = Exon 22 truncated CFTR (Homo sapiens, UniProt P13569); assay: TECC-24 assay in 16HBEge-W1282X cells; format: cell-based; design: contain the first 1239 amino acids of a WT CFTR; endogenous in cells; conditions: for FSK+VX-770 AUC/min: in combination SA-08 10 μM
Experimental: Electrophysiology. Clonal lines were seeded at a density of 4.5×10^5 cells cm-2 onto HTS Transwell 24-well filter inserts pre-coated with human collagen type IV. Cells were grown as submerged cultures in MEM (Gibco, 11095) containing 10% FBS and 1% Pen/Strep, and incubated at 37° C. and 5% CO2. Cells were treated from both the basolateral and apical side with fresh medium containing either control (vehicle) or test article for the treatment time indicated in the figure legends. After a total of 7 days, 16HBE cells typically formed electrically tight epithelia with a transepithelial resistance (Rt) of 200-600 Ω·cm2 and CFTR-mediated Cl— equivalent current (Ieq) was determined as described below.
Prior to functional (Ieq) studies, MEM was replaced with fresh HEPES-buffered (pH 7.4) solutions (assay buffer). A driving force for chloride ions was established through application of a basolateral to apical chloride ion gradient (see buffer composition below). Cell plates were mounted onto an automated robotic assay platform and equilibrated at ˜36° C. for 90 min. After equilibration, transepithelial voltage (Vt) and resistance (Rt) were monitored at ˜5 min intervals using a 24-channel transepithelial current clamp amplifier (TECC-24, EP Design, Bertem, Belgium). Electrode potential differences for each pair of Ag/AgCl voltage electrodes were also monitored at 5 min intervals by taking voltage measurements from a control plate with matching buffer solutions and 16HBE cells that were left untreated. Ieq was calculated from values of Vt and Rt using Ohm's law after correcting for series resistance and (electrode) voltage offsets unrelated to Vt. Ieq traces are plotted as mean±SD (n=3). The first 4 data points reflect baseline Ieq currents prior to sequential stimulation of CFTR with forskolin (10 μM) and VX-770/ivacaftor (1 μM). The last six data points were recorded in the presence of CFTR inhibitor CFTRinh-172 (20 μM). Agonists/antagonists were pre-diluted to 10-fold concentrations in assay buffer and add-ed to either the basolateral (forskolin) or apical (forskolin, VX-770/ivacaftor, and CFTRinh-172) side of the membrane (assay plates only). CFTR-mediated changes in Ieq, (i.e., delta forskolin, delta VX-770, delta CFTRinh-172, or the area under the curve (AUC) between forskolin and CFTRinh-172 addition) are used as a measure of functional CFTR surface expression or treatment-related functional rescue of mutant CFTR.
Assay buffer: CFTR-mediated transepithelial currents were recorded using a Cl— concentration gradient. The basolateral solution contained (mM): 137 NaCl, 4 KCl, 1.8 CaCl2, 1 MgCl2, 10 HEPES and D-Glucose, adjusted to pH 7.4 with NaOH/HCl ([CI-] total: 146.6 mM). The apical solution was matched to the basolateral except for (mM): 137 Na-gluconate replaced 137 NaCl ([Cl—] total: 9.6 mM).
The function of Exon 22 truncated CFTR protein was assayed by the transepithelial chloride conductance assay (TECC-24 assay), as depicted in FIG. 15A and FIG. 15B. 16HBEge-W1282X cells were incubated in 0.02% DMSO (vehicle) or VX445/VX661 prior to the TECC assay. Characteristic CFTR responses to forskolin, potentiator (VX-770), and CFTR inhibition (Inh-172) were recorded in the presence and absence of various doses and combinations of ASO treatments. […] ASO treatment further induced a larger chloride channel conductance compared to no ASO treatment.
The function of various CFTR proteins in the cells can be assessed by comparing the area under curve (AUC) of the induced chloride conductance obtained in the electrophysiology assays. The AUC of various mutant cell lines (e.g., 16HBEge-W1282X cells), with or without treatment, can be normalized to the AUC obtained from cells expressing WT CFTR protein and expressed as either a percentage of WT CFTR (% WT CFTR) or a ratio to WT CFTR (variant/WT CFTR). […]

[1] = system: Exon 22 truncated CFTR mRNA; assay: ddPCR of Exon 22 truncated CFTR mRNA in 16HBE14o- WT cells treated with ASOs; format: cell-based, human
Experimental: Free uptake ASO treatments in 16HBEs. Steric blocking ASOs were purchased from IDT with Phosphorothioate (PS) backbone and 2-O-Methoxyethyl (2′-MOE) modifications at each nucleotide. Lyophilized steric blocking ASOs were resuspended in PBS+Mg+Ca to 1 mM and stored in frozen aliquots to minimize the effects of freeze thaw cycles. 16HBEge and 16HBE14o- lines were seeded at 0.150×10^6 cells/well in 24 well plates and grown at 37° C./5% CO2 in MEM supplemented with 10% FBS and 1% Penicil-lin/Streptomycin. After 24 hours, media was refreshed with addition of ASOs and RNA was harvested after 48 hours of treatment.
ddPCR Isoform Quantification. RNA was isolated from treated cells with the Aurum Total RNA Mini Kit. One Step reverse transcriptase and quantitative PCR was performed with the iTaq Universal Probes One Step Kit. All qPCR was run on the CFX Touch Deep Well real-time PCR detection system and analyzed with Bio-Rad CFX Maestro 1.0 software (version 4.0.2325.0418). ddPCR assays were composed of: cDNA or digested genomic DNA, 2×ddPCR Supermix for Probes (no dUTP) (1× final) (Bio-Rad), 40× as-say (1× final), and nuclease free water in 20 μl total reaction volume. cDNA synthesis was performed with the iScript Advanced cDNA Synthesis Kit for RT-qPCR (Bio-Rad). […]

Sequence of Exon 22 truncated CFTR (P13569 with tags, fused parts or gaps): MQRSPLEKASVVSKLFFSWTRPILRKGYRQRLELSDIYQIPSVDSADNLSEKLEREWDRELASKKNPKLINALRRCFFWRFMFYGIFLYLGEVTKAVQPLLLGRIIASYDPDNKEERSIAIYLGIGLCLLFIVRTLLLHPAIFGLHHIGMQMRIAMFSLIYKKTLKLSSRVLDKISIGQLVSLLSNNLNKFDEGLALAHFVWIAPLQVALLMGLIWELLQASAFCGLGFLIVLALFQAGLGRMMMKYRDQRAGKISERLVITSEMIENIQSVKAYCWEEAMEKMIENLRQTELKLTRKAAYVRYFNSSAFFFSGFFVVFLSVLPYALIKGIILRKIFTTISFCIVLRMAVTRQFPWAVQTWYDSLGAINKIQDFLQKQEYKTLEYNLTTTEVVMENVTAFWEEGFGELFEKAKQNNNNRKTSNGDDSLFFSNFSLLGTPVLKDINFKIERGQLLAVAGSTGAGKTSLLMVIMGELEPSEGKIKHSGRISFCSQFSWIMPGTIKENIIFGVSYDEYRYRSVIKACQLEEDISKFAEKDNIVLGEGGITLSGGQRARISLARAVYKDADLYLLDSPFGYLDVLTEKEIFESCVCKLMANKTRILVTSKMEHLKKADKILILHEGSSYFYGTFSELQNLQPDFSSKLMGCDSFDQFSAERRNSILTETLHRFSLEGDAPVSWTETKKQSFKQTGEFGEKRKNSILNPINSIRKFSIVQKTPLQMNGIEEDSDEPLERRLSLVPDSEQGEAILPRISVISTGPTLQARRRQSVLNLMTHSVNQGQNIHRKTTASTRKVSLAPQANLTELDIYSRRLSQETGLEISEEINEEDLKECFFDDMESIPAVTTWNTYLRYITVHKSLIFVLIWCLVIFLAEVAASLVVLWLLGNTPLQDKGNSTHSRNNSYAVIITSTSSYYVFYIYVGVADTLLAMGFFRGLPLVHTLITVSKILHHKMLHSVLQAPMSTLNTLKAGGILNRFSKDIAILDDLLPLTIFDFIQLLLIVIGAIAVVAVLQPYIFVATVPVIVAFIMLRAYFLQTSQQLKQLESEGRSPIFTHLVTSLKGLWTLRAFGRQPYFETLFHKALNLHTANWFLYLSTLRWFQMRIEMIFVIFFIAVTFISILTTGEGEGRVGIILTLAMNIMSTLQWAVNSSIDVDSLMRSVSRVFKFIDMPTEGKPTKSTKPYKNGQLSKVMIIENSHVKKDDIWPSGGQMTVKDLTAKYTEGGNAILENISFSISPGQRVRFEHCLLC

| Ex22 truncated CFTR function, of WT CFTR function (Exon 22 truncated CFTR; Trikafta (3/3 μM VX-661/445 48 h, 3 μM VX-770), no ASO) [%] | Substance | Exon 22 truncated CFTR mRNA, of FL CFTR level in WT cells [1] [%] | chloride conductance AUC, of WT (Exon 22 truncated CFTR; 0.1 μM SA08, with Trikafta) | chloride conductance AUC, of WT (Exon 22 truncated CFTR; 1 μM SA08, with Trikafta) [%] | chloride conductance AUC, of WT (Exon 22 truncated CFTR; 2 μM SA08, with Trikafta) [%] | chloride conductance AUC, of WT (Exon 22 truncated CFTR; 10 μM SD10, with Trikafta) | increase in AUC (of WT) (Exon 22 truncated CFTR; 10 μM SD10, without Trikafta treatment) [%] | FSK+VX-770 AUC/min (Exon 22 truncated CFTR; (+) VX-445/VX-661 (3/3 μM), SD-10 100 μM) | FSK+VX-770 AUC/min (Exon 22 truncated CFTR; (+) VX-445/VX-661 (3/3 μM), SD-10 printed '(μM)' / 10 μM) | FSK+VX-770 AUC/min (Exon 22 truncated CFTR; (−) VX-445/VX-661, SD-10 100 μM) | FSK+VX-770 AUC/min (Exon 22 truncated CFTR; (−) VX-445/VX-661, SD-10 printed '(μM)' / 10 μM) |
| --- | --- | --- | --- | --- | --- | --- | --- | --- | --- | --- | --- |
| ~3 | elexacaftor/ivacaftor/tezacaftor [Trikafta] |  |  |  |  |  |  |  |  |  |  |
|  | ataaggtaaaagtgatgggatc (antisense ATAAGGTAAAAGTGATGGGATC; all 2'-MOE, all phosphorothioate, methylation of C not given here) [SA8, PS backbone, 2′-MOE] | ~25 | about 3.1% | ~4.9 | ~6.2 |  |  |  |  |  |  |
|  | aaagcaagcagtgttcaaatct (antisense AAAGCAAGCAGTGTTCAAATCT; all 2'-MOE, all phosphorothioate, methylation of C not given here) [SD10, PS backbone, 2′-MOE] | ~37 |  |  |  | about 9% | 2.9 | 11.5+/−0.5 μA/cm^2 | 10.4+/−1.2 μA/cm^2 | 4.6+/−0.4 μA/cm^2 | 5.5+/−0.7 μA/cm^2 |
